Results on twelve molecules are retold here after US8980845B2, “Biotechnological production of cyanophycin dipeptides” (Westfälische Wilhelms-Universität Münster, priority 2008, dated 2015).

Data set [1] deals with purified CphEal from P. alcaligenes strain DIP1. The data set can be described thus: Effect of group-specific inhibitors on purified CphEal, activity on CGP-overlay agar plates. It is filed as biochemical. To be noted: for Inhibition of CphEal (in words): assayed on CGP-overlay agar plates and by HPLC analysis. As to the method:
(§1) To reveal the effect of enzyme inhibitors on the purified CphEal, 50 μl aliquots of the purified enzyme stalk solution were added to 450 μl of Na-phosphate buffer (50 mM) and incubated for 2 h at 30° C. in the presence of one of the following Group-specific inhibitors; Leupeptin (thiol-proteases), EDTA (metalloproteases), Pefabloc (serine-proteases), PMSF (serine-proteases) or N-bromosuccinimide (tryptophan residues).
(§2) To gain information on the catalytic mechanism of CphEal, inhibitor experiments were conducted employing different group-specific inhibitors (Table 1).

Data set [2] has the same test system. The data set can be described thus: Effect of group-specific inhibitors on purified CphEal, HPLC analysis of CGP degradation products. The following applies: for HPLC analysis (Inhibition %) high inhibitor concentration: high concentration (mM): Leupeptin 0.01, EDTA 60, Pefabloc 80, PMSF 10, NBS 5; for HPLC analysis (Inhibition %) high inhibitor concentration / HPLC analysis (Inhibition %) low inhibitor concentration: 2 h at 30° C., refers to control without inhibitor; for HPLC analysis (Inhibition %) low inhibitor concentration: low concentration (mM): Leupeptin 0.001, EDTA 30, Pefabloc 8, PMSF 1, NBS 1. In kind it is biochemical. As to the method: as §1, §2

The conditions of data set [3]: 250 mg/kg/day oral for seven days, five healthy subjects aged 20 to 35; cited from earlier work.
The test system of data set [4] is Caco2 cells (human-colon epithelial adenocarcinoma cells). To be noted: Caco-2, 113 h.
Protocol: (§3) A Dulbecco's Modified Eagle Medium (DMEM) containing 20% Fetal Calf Serum (FCS) and 1% of 2 mM Glutamine solution was used as cultivation medium. About 7000 Caco2 cells per well were disseminated in a 24-well plate and incubated at 37° C. under an atmosphere of 5% CO2 and about 98% humidity. The cells were checked microscopically on a daily basis until forming monolayer after nearly 50 h. […] A well line was supplied with fresh 700 μl of the incubation medium without the latter additives and was considered as control. Samples were taken after incubation periods of 0, 13, 22, 67 and 113 h and were analyzed by HPLC as described by Sallam and Steinbüchel (J. App. Microbiol. DOI: 10.1111/j.1365-2672.2009.04221.x) to determine the change of concentrations of the tested dipeptides and amino acids.
The test system is the same in data set [5]. The data set can be described thus: Absorption of CGP dipeptides by Caco2-cell cultures. The following applies: after 113 h of incubation; medium with 350 μg/ml CGP dipeptides (90% Asp-Arg: 10% Asp-Lys).
Protocol: as §3
Data set [6] concerns P. alcaligenes strain DIP1. The data set can be described thus: Induction of CphEal production in cultures of strain DIP1. In kind it is cell-based.
Protocol: The activity of the cyanophycinase (CphEal) was inspected by formation of degradation halos on CGP-overlay agar plates by small aliquots of concentrated enzyme solutions, for this, 5 ml culture samples were centrifuged at 2800×g for 30 min (Megafuge 1.0 R, Heraeus Sepatech GmbH, Osterode, Germany) and 4 ml of the resulting supernatant were concentrated 100 folds by ultrafiltration. For the quantitative determination of the enzyme in culture samples, a photometric method was developed as follows; 2 μl of the concentrated culture supernatant were added to 1 ml of a CGP suspension (100 mg l^−1) and incubated at 30° C. for 30 min in a tube rotator (3 rpm, type 502 S, Watson-Marlow GmbH, Rommerskirchen, Germany). Finally, OD600 nm of samples was measured to indicate the decrease in CGP amount due to degradation; this in turn was used to indicate the concentration of CphEal in solutions through the respective calibration curve.
To conclude the optimum cultivation conditions for maximum production of CphEal by strain DIP1, cells were cultivated on different concentrations of citrate under optimum growth conditions, when cells reached the stationary phase; CphEal production was induced by the addition of 0.25 g CGP.
During the following 5 h, supernatant samples were concentrated (100 folds) and screened for degradation activity on CGP-overlay agar plates as well as photometrically.
All inductors were tested first at a concentration of 0.25 g l^−1 and CphEal production was assayed on CGP-overlay agar plates and also photometrically.
The conditions of data set [7]: low dose intravenous (IV) infusion; cited from earlier work.
For another data set, the system named is CGP. The following applies: data from literature, cited from earlier work.

Values joined by “and” are separate entries in the source; they are usually repeats but may differ in a detail not shown here. Identical values can stand only once. “Also recorded” adds a separate entry of the source. Like-named read-outs stand apart in the source and are kept apart here. Marks after values point to notes of the source that are not given here.

Turning to `Cl.NCCc1ccc(S(=O)(=O)F)cc1` [Pefabloc ®, 4-(2-aminoethyl) benzensulfonylfluoride•HCl], the “Inhibition of CphEal (in words)” value in data set [1] (listed as Pefabloc) is recorded as “strongly inhibited”. Besides, the “Inhibition of CphEal (in words)” value in data set [1] (listed as Pefabloc®) is listed as “largely inhibited”. Further, in data set [2], the “HPLC analysis (Inhibition %) high inhibitor concentration” value was determined as 100% and the “HPLC analysis (Inhibition %) low inhibitor concentration” value is 91%.

`CC(=O)N[C@@H](CC(C)C)C(=O)N[C@@H](CC(C)C)C(=O)N[C@H](C=O)CCCNC(=N)N` [Leupeptin]: the “Formation of degradation halos by CphEal on CGP-overlay agar plates in presence of inhibitor” value (from here on “Formation of degradation halos … of inhibitor”) in data set [1] is reported as “no activity inhibition”. For the same molecule, the “Formation of degradation halos … of inhibitor” value in data set [1] (listed as leupeptin) is recorded as “not affected”. Besides, in data set [2], the “HPLC analysis (Inhibition %) high inhibitor concentration” value is on record as 39% and the “HPLC analysis (Inhibition %) low inhibitor concentration” value is listed as 10%.

As for “L-Arginine-L-Aspartate [arginine aspartate]”, the “Rise in GH during slow wave sleep” value in data set [3] is on record as 60%.

In the case of `NCCCC[C@H](N)C(=O)O` [free L-lysine, L-lysine], the “Absorption by Caco2 cells (HPLC analysis of the medium samples)” value (“Absorption by Caco2 cells” below) in data set [4] is 51%.

In the case of `NC(N)=NCCC[C@H](NC(=O)C[C@H](N)C(=O)O)C(=O)O` [cyanophycin Asp-Arg dipeptides, β-aspartate-arginine], in data set [5], the “Absorption by Caco2 cells” value was “approximately 60%”.

Take `O=S(=O)(F)Cc1ccccc1` [PMSF, Phenylmethylsulfonylfluoride]: the “Inhibition of CphEal (in words)” value in data set [1] was “largely inhibited; also recorded: strongly inhibited”. In data set [2], the “HPLC analysis (Inhibition %) high inhibitor concentration” value is reported as 57% and the “HPLC analysis (Inhibition %) low inhibitor concentration” value is 0%.

With `N[C@@H](CC(=O)O)C(=O)O` [L-aspartic acid], the “CphEal production after induction in comparison to cultures induced with optimum CGP concentration (0.05 g l^−1)” value in data set [6] (4 g l^−1 aspartate, 5 h) is “only the third”. The “Time after induction at which maximum CphEal production was obtained” value in data set [6] (at optimum inductor concentration) amounted to 5 h. In addition, the “Inductor concentration giving maximum CphEal production” value in data set [6] (cultures of strain DIP1 under optimal production conditions) turned out to be 4 g/L. In data set [6] (inductors tested at 0.25 g l^−1, CGP-overlay agar plates and photometrically), the “Induction of CphEal production” value was “induced significant amounts”.

Turning to `O=C1CCC(=O)N1Br` [NBS, N-bromosuccinimide], in data set [1], the “Inhibition of CphEal (in words)” value is on record as “totally inhibited; also recorded: total inhibition”. For the same molecule, in data set [2], the “HPLC analysis (Inhibition %) high inhibitor concentration” value came to 100% and the “HPLC analysis (Inhibition %) low inhibitor concentration” value came out at 100%.

`N=C(N)NCCC[C@H](N)C(=O)O` [free arginine, L-arginine]: the “Serum GH levels” value in data set [7] is given as “significant increase”. Besides, the “Absorption by Caco2 cells” value in data set [4] is given as 41%.

Consider `O=C(O)CN(CCN(CC(=O)O)CC(=O)O)CC(=O)O` [EDTA], for which the “Formation of degradation halos … of inhibitor” value in data set [1] is listed as “no activity inhibition; also recorded: not affected”. Besides, in data set [2], the “HPLC analysis of inhibitor-treated samples (in words)” value is reported as “showed inhibition”, the “HPLC analysis (Inhibition %) high inhibitor concentration” value is reported as 75^c % and the “HPLC analysis (Inhibition %) low inhibitor concentration” value is given as 65^c %. In addition, the “Inhibition of the CGPase, HPLC analysis of samples treated with EDTA” value in data set [2] (stated to be due to precipitates during OPA-derivatization) is listed as “about 75%”.

Take `NCCCC[C@H](NC(=O)C[C@H](N)C(=O)O)C(=O)O` [cyanophycin Asp-Lys dipeptides, β-aspartate-lysine]: in data set [5], the “Absorption by Caco2 cells” value is 68%.

B1: CphB: intracellular cyanophycinase of Synechocystis sp. PCC 6803 (protein, UniProt P73832 2-271, looked up)
Cyanophycinase: PLSSQPAILIIGGAEDKVHGREILQTFWSRSGGNDAIIGIIPSASREPLLIGERYQTIFSDMGVKELKVLDIRDRAQGDDSGYRLFVEQCTGIFMTGGDQLRLCGLLADTPLMDRIRQRVHNGEISLAGTSAGAAVMGHHMIAGGSSGEWPNRALVDMAVGLGIVPEIVVDQHFHNRNRMARLLSAISTHPELLGLGIDEDTCAMFERDGSVKVIGQGTVSFVDARDMSYTNAALVGANAPLSLHNLRLNILVHGEVYHQVKQRAFPRVT
As for B1, in the data set with CGP (cell wrapped: Exo-peptidase), the Mechanism result is “Exo-”. Further, in the data set on CGP, the CGP degradation products entry was “β-Asp-Arg”; the Inhibitors entry was “PMSF, and 3,4-dichloro- and Pefabloc ®,”; the “Optimum pH range” value is reported as 7-8^; the Optimum temperature was 35 °C.
